{"source": "paper PMC8921834", "about": "“Septins tune lipid kinase activity and PI(4,5)P2 turnover during G-protein–coupled PLC signalling in vivo” (Life Science Alliance, 2022)", "target": "T1, dPIP5K^L (Drosophila melanogaster, UniProt A0A6M3Q9L5)", "T1 construct": "gene PIP5K59B; full-length long isoform, 897 residues, about 100 kD; cDNA from fly retinae in pUAST-attB, transiently expressed in Drosophila S2R+ cells; lysate assayed", "T1 sequence (A0A6M3Q9L5 1-891)": "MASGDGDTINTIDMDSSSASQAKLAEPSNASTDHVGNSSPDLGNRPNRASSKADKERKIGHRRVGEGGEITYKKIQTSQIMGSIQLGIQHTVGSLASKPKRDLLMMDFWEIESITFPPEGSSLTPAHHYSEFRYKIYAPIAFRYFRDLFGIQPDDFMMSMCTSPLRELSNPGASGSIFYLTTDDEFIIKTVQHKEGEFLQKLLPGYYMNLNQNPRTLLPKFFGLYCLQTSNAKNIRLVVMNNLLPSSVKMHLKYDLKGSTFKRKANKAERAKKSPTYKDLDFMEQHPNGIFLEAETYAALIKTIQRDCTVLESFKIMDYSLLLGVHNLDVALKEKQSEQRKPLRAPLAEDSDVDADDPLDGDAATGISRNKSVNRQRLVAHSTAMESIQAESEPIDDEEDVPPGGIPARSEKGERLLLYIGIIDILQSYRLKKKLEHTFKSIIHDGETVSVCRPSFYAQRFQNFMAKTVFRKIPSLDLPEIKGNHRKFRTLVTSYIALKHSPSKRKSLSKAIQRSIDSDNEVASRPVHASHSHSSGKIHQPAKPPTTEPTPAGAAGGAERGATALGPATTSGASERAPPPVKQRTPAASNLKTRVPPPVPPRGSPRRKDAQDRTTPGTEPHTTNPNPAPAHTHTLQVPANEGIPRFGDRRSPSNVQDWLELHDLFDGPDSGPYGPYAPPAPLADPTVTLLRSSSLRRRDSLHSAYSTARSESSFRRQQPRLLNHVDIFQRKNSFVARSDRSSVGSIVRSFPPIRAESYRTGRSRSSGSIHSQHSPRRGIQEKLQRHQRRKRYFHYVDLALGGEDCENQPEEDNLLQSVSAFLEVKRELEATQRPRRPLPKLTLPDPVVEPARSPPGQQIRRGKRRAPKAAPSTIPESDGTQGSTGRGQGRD", "assay": "in vitro lipid kinase assay, LC-MS/MS of product:substrate ratio", "type": "biochemical", "conditions": "S2R+ lysate 10 μg; 600 pmol PI4P with phosphatidylserine micelles; ATP (40 μM in 2x buffer), pH 7.4, 30 °C, 30 min", "data": [{"smiles": "CCCCC/C=C\\C/C=C\\C/C=C\\C/C=C\\CCCC(=O)O[C@H](COC(=O)CCCCCCCCCCCCCCCC)COP(=O)(O)O[C@H]1[C@H](O)[C@@H](O)[C@H](OP(=O)(O)O)[C@@H](O)[C@H]1O", "note": "[37:4 PI4P]", "values": [{"measurement": "response ratio", "result": "response ratio of dPIP5K^L transfected lysates was significantly higher"}]}]}
